According to paper PMC12028158, “Synthesis and In Vitro Evaluation of the Anticancer Effect of Novel Phosphonium Vindoline Derivatives” (International Journal of Molecular Sciences, 2025):
Read-outs that look alike come from different tables or passages of the source.

Assays:
Format in all cases: cell-based
SF-295 = assay: NCI60 five-dose screen; settings: Homo sapiens, SF-295, CNS Cancer, read-out: GI50
SK-MEL-2 = assay: NCI60 one-dose screen; settings: Homo sapiens; SK-MEL-2, 10 μM, one-dose; read-out: Growth percent
RPMI-8226 [1] = assay: NCI60 five-dose screen; settings: Homo sapiens, RPMI-8226, Leukemia, read-out: GI50
MALME-3M = assay: NCI60 one-dose screen; settings: Homo sapiens; MALME-3M, 10 μM, one-dose; read-out: Growth percent
HL-60(TB) = assay: NCI60 five-dose screen; settings: Homo sapiens, HL-60, HL-60(TB), Leukemia, read-out: GI50
LOX IMVI = assay: NCI60 one-dose screen; settings: Homo sapiens, 10 μM, one-dose, read-out: Growth percent
UO-31 = assay: NCI60 one-dose screen; settings: Homo sapiens; UO-31, 10 μM, one-dose; read-out: Growth percent
DU-145 = assay: NCI60 five-dose screen; settings: Homo sapiens, DU-145, Prostate Cancer, read-out: GI50
SNB-19 [2] = assay: NCI60 five-dose screen; settings: Homo sapiens, SNB-19, SNB-19, CNS Cancer, read-out: GI50
SNB-19 [3] = assay: NCI60 one-dose screen; settings: Homo sapiens; SNB-19, 10 μM, one-dose; read-out: Growth percent
HT29 = assay: NCI60 one-dose screen; settings: Homo sapiens, HT-29; HT29, 10 μM, one-dose; read-out: Growth percent
MDA-MB-435 = assay: NCI60 one-dose screen; settings: Homo sapiens; MDA-MB-435, 10 μM, one-dose; read-out: Growth percent
MCF7 [4] = assay: NCI60 five-dose screen; settings: Homo sapiens, MCF7, MCF7, Breast Cancer, read-out: GI50
EKVX = assay: NCI60 five-dose screen; settings: Homo sapiens, Non-small Cell Lung Cancer, read-out: GI50
COLO 205 = assay: NCI60 one-dose screen; settings: Homo sapiens; COLO 205, 10 μM, one-dose; read-out: Growth percent
SK-MEL-5 = assay: NCI60 one-dose screen; settings: Homo sapiens; SK-MEL-5, 10 μM, one-dose; read-out: Growth percent
HOP-92 = assay: NCI60 five-dose screen; settings: Homo sapiens, HOP-92, Non-small Cell Lung Cancer, read-out: GI50
NCI-H226 = assay: NCI60 one-dose screen; settings: Homo sapiens; NCI-H226, 10 μM, one-dose; read-out: Growth percent
OVCAR-3 = assay: NCI60 five-dose screen; settings: Homo sapiens, OVCAR-3, Ovarian Cancer, read-out: GI50
U251 = assay: NCI60 one-dose screen; settings: Homo sapiens, U-251; U251, 10 μM, one-dose; read-out: Growth percent
SF-539 [5] = assay: NCI60 one-dose screen; settings: Homo sapiens; SF-539, 10 μM, one-dose; read-out: Growth percent
Prostate Cancer panel = assay: NCI60 five-dose screen, panel mean; settings: Homo sapiens, mean over Prostate Cancer panel
MDA-MB-468 = assay: NCI60 five-dose screen; settings: Homo sapiens, MDA-MB-468, MDA-MB-468, Breast Cancer, read-out: GI50
SK-MEL-28 = assay: NCI60 five-dose screen; settings: Homo sapiens, SK-MEL-28, Melanoma, read-out: GI50
SF-539 [6] = assay: NCI60 five-dose screen; settings: Homo sapiens, SF-539, CNS Cancer, read-out: GI50
OVCAR-8 = assay: NCI60 five-dose screen; settings: Homo sapiens, OVCAR-8, Ovarian Cancer, read-out: GI50
KM12 [7] = assay: NCI60 five-dose screen; settings: Homo sapiens, KM12, KM12, Colon Cancer, read-out: GI50
NCI-H460 [8] = assay: NCI60 five-dose screen; settings: Homo sapiens, NCI-H460, Non-small Cell Lung Cancer, read-out: GI50
KM12 [9] = assay: NCI60 one-dose screen; settings: Homo sapiens; KM12, 10 μM, one-dose; read-out: Growth percent
SN12C = assay: NCI60 one-dose screen; settings: Homo sapiens, 10 μM, one-dose, read-out: Growth percent
TK-10 = assay: NCI60 five-dose screen; settings: Homo sapiens, TK-10, Renal Cancer, read-out: GI50
Melanoma panel = assay: NCI60 five-dose screen, panel mean; settings: Homo sapiens, mean over Melanoma panel
RXF 393 = assay: NCI60 five-dose screen; settings: Homo sapiens, RXF 393, Renal Cancer, read-out: GI50
UACC-257 = assay: NCI60 five-dose screen; settings: Homo sapiens, UACC-257, UACC-257, Melanoma, read-out: GI50
[10] = system: Non-small Cell Lung Cancer panel; assay: NCI60 five-dose screen, panel mean; settings: Homo sapiens, mean over Non-small Cell Lung Cancer panel
MCF7 [11] = assay: NCI60 one-dose screen; settings: Homo sapiens; MCF7, 10 μM, one-dose; read-out: Growth percent
A498 = assay: NCI60 five-dose screen; settings: Homo sapiens, A498, Renal Cancer, read-out: GI50
786-0 = assay: NCI60 five-dose screen; settings: Homo sapiens, 786-0, Renal Cancer, read-out: GI50
HOP-62 = assay: NCI60 one-dose screen; settings: Homo sapiens; HOP-62, 10 μM, one-dose; read-out: Growth percent
NCI-H460 [12] = assay: NCI60 one-dose screen; settings: Homo sapiens; NCI-H460, 10 μM, one-dose; read-out: Growth percent
SR = assay: NCI60 one-dose screen; settings: Homo sapiens, 10 μM, one-dose, read-out: Growth percent
SW-620 = assay: NCI60 one-dose screen; settings: Homo sapiens; SW-620, 10 μM, one-dose; read-out: Growth percent
NCI-H23 = assay: NCI60 five-dose screen; settings: Homo sapiens, NCI-H23, Non-small Cell Lung Cancer, read-out: GI50
PC-3 = assay: NCI60 five-dose screen; settings: Homo sapiens, PC-3, Prostate Cancer, read-out: GI50
RPMI-8226 [13] = assay: NCI60 one-dose screen; settings: Homo sapiens; RPMI-8226, 10 μM, one-dose; read-out: Growth percent
SF-268 = assay: NCI60 one-dose screen; settings: Homo sapiens; SF-268, 10 μM, one-dose; read-out: Growth percent

## CC[C@]12C=CCN3CC[C@@]4(c5ccc(OC)cc5N(C)[C@H]4[C@@](O)(C(=O)OC)[C@@H]1OC(=O)CCC[P+](c1ccccc1)(c1ccccc1)c1ccccc1)[C@@H]32 [compound 3, reference compound]
SF-295; five-dose
  GI50: 1.45 µM
SK-MEL-2
  activity at 10 µM: -65.3%
RPMI-8226 [1]; five-dose
  GI50: 0.219 µM
MALME-3M
  activity at 10 µM: -12.4%
HL-60(TB); five-dose
  GI50: 0.124 µM
LOX IMVI
  activity at 10 µM: 8.81%
UO-31
  activity at 10 µM: 80%
DU-145; five-dose
  GI50: 1.07 µM
SNB-19 [2]; five-dose
  GI50: 0.334 µM
SNB-19 [3]
  activity at 10 µM: 11%
HT29
  activity at 10 µM: 2.42%
MDA-MB-435
  activity at 10 µM: -21.6%
MCF7 [4]; five-dose
  GI50: 0.306 µM
EKVX; five-dose
  GI50: 0.47 µM
COLO 205
  activity at 10 µM: -87.9%
SK-MEL-5
  activity at 10 µM: -91.5%
HOP-92; five-dose
  GI50: 0.066 µM
NCI-H226
  activity at 10 µM: 14%
OVCAR-3; five-dose
  GI50: 0.369 µM
U251
  activity at 10 µM: 4.03%
SF-539 [5]
  activity at 10 µM: 16.2%
Prostate Cancer panel; read-out: Mean GI50
  GI50: 0.64 µM
MDA-MB-468; five-dose
  GI50: 0.126 µM
SK-MEL-28; five-dose
  GI50: 0.261 µM
SF-539 [6]; five-dose
  GI50: 0.662 µM
OVCAR-8; five-dose
  GI50: 1.27 µM
KM12 [7]; five-dose
  GI50: 0.297 µM
NCI-H460 [8]; five-dose
  GI50: 1.22 µM
KM12 [9]
  activity at 10 µM: -27.2%
SN12C
  activity at 10 µM: 2.73%
TK-10; five-dose
  GI50: 1.48 µM
Melanoma panel; read-out: Mean GI50
  GI50: 0.45 µM
RXF 393; five-dose
  GI50: 0.705 µM
UACC-257; five-dose
  GI50: 0.24 µM
[10]; read-out: Mean GI50
  GI50: 1.11 µM
MCF7 [11]
  activity at 10 µM: -3.34%
A498; five-dose
  GI50: 1.71 µM
786-0; five-dose
  GI50: 2.74 µM
HOP-62
  activity at 10 µM: 2.56%
NCI-H460 [12]
  activity at 10 µM: 6.11%
SR
  activity at 10 µM: 9.57%
SW-620
  activity at 10 µM: 17.4%
NCI-H23; five-dose
  GI50: 0.971 µM
PC-3; five-dose
  GI50: 0.204 µM
RPMI-8226 [13]
  activity at 10 µM: -12.7%
SF-268
  activity at 10 µM: 19.2%

## CCC12C=CCN3CCC4(c5ccc(OC)cc5N(C)C4C(O)(C(=O)OC)C1OC(=O)c1ccc(C[P+](c4ccccc4)(c4ccccc4)c4ccccc4)cc1)C32 (centres unmarked) [compound 12]
SF-295
  GI50: 2.92 µM
SK-MEL-2
  activity at 10 µM: -77.8%
RPMI-8226 [1]
  GI50: 0.325 µM
MALME-3M
  activity at 10 µM: -95.5%
HL-60(TB)
  GI50: 0.297 µM
LOX IMVI
  activity at 10 µM: -39.8%
UO-31
  activity at 10 µM: 88.3%
DU-145
  GI50: 1.61 µM
SNB-19 [2]
  GI50: 0.725 µM
SNB-19 [3]
  activity at 10 µM: -72.2%
HT29
  activity at 10 µM: -39.4%
MDA-MB-435
  activity at 10 µM: -88.8%
MCF7 [4]
  GI50: 0.442 µM
EKVX
  GI50: 2.03 µM
COLO 205
  activity at 10 µM: -87.2%
SK-MEL-5
  activity at 10 µM: -98.5%
HOP-92
  GI50: 0.404 µM
NCI-H226
  activity at 10 µM: -23.1%
OVCAR-3
  GI50: 0.704 µM
U251
  activity at 10 µM: -72.6%
SF-539 [5]
  activity at 10 µM: -90.6%
Prostate Cancer panel; read-out: GI50 Mean
  GI50: 1.13 µM
MDA-MB-468
  GI50: 0.186 µM
SK-MEL-28
  GI50: 0.52 µM
SF-539 [6]
  GI50: 1.26 µM
OVCAR-8
  GI50: 3.18 µM
KM12 [7]
  GI50: 0.514 µM
NCI-H460 [8]
  GI50: 1.66 µM
KM12 [9]
  activity at 10 µM: -65.8%
SN12C
  activity at 10 µM: -46.5%
TK-10
  GI50: 2.84 µM
Melanoma panel; read-out: GI50 Mean
  GI50: 1.03 µM
RXF 393
  GI50: 1.14 µM
UACC-257
  GI50: 0.918 µM
[10]; read-out: GI50 Mean
  GI50: 2.05 µM
MCF7 [11]
  activity at 10 µM: -52.8%
A498
  GI50: 16.4 µM
786-0
  GI50: 3.58 µM
HOP-62
  activity at 10 µM: -32.7%
NCI-H460 [12]
  activity at 10 µM: -62.8%
SR
  activity at 10 µM: -58.3%
SW-620
  activity at 10 µM: -66%
NCI-H23
  GI50: 2.81 µM
PC-3
  GI50: 0.657 µM
RPMI-8226 [13]
  activity at 10 µM: -50.8%
SF-268
  activity at 10 µM: -26.1%
